{"source": "patent US20130310256A1", "about": "“HERBICIDAL COMPOSITIONS COMPRISING 4-AMINO-3-CHLORO-5-FLUORO-6-(4-CHLORO-2-FLUORO-3-METHOXYPHENYL) PYRIDINE-2-CARBOXYLIC ACID OR A DERIVATIVE THEREOF AND VLCFA AND LIPID SYNTHESIS INHIBITING HERBICIDES” (DOW AGROSCIENCES LLC, priority 2008, published 2013)", "key": {"[1]": {"system": "CYPRO", "test": "Example II: in-water applied weed control, transplanted paddy rice, greenhouse", "assay_type": "in vivo, Cyperus rotundus L. (purple nutsedge)", "how_it_was_run": "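Transplanted rice and weeds at the first to fourth true leaf stage in flooded mud pots (pH ~7.6 soil), greenhouse ~29/26 °C, 14 h photoperiod. Compound A (acid equivalent) and VLCFA/lipid-synthesis herbicides (active ingredient) injected into the paddy water in 1.25% crop oil concentrate. Injury scored visually at ~3 weeks versus untreated, 0–100%.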"}, "[2]": {"system": "DIGSA", "test": "Example I: postemergence foliar-applied weed control, greenhouse", "assay_type": "in vivo, Digitaria sanguinalis (L.) Scop. (large crabgrass)", "conditions": "20 DAA", "source_text": "Seeds or nutlets of the desired test plant species were planted in a soil matrix prepared by mixing a loam or sandy loam soil (e.g., 28.6 percent silt, 18.8 percent clay, and 52.6 percent sand, with a pH of about 5.8 and an organic matter content of about 1.8 percent) and calcareous grit in an 80 to 20 ratio. The soil matrix was contained in plastic pots with a volume of 1 quart and a surface area of 83.6 square centimeters (cm^2). When required to ensure good germination and healthy plants, a fungicide treatment and/or other chemical or physical treatment was applied. The plants were grown for 8-22 days in a greenhouse with an approximate 14 hr photoperiod which was maintained at about 29° C. during the day and 26° C. during the night. Nutrients (Peters Excel® 15-5-15 5-Ca 2-Mg and iron chelate) were applied in the irrigation solution as needed and water was added on a regular basis. Supplemental lighting was provided with overhead metal halide 1000-Watt lamps as necessary. The plants were employed for testing when they reached the first through fourth true leaf stage.\nTreatments consisted of the acid or esters of 4-amino-3-chloro-5-fluoro-6-(4-chloro-2-fluoro-3-methoxy-phenyl)pyridine-2-carboxylic acid (Compound A), each formulated as an SC (suspension concentrate), and various herbicidal components alone and in combination. Forms of compound A were applied on an acid equivalent basis.\nOther herbicidal components were applied on an active ingredient basis and included very long chain fatty acid (VLCFA) synthesis-inhibiting and fatty acid/lipid synthesis-inhibiting herbicides acetochlor (technical grade material), acetochlor+dichlormid formulated as Topnotch®, pretilachlor (technical grade material), butachlor formulated as Butachlor EC, fentrazamide formulated as Fentrazamide EC, thiobencarb formulated as Bolero® 8EC, cafenstrole formulated as Himeadow® WP or Lapost® Flowable, benfuresate formulated as Full Shot®, dimethenamid-P formulated as Outlook®, indanofan (technical grade material), flufenacet formulated as Define® DF, mefenacet (technical grade material), S-metolachlor formulated as Dual® II Magnum, pethoxamid formulated as Successor® 600, and pyroxasulfone (technical grade material).\nTreatment requirements were calculated based upon the rates being tested, the concentration of active ingredient or acid equivalent in the formulation, and a 12 mL application volume at a rate of 187 L/ha.\nFor treatments comprised of formulated compounds, measured amounts of compounds were placed individually in 25 mL glass vials and diluted in a volume of 1.25% (v/v) Agri-Dex® crop oil concentrated to obtain 12× stock solutions. […] Application solutions were prepared by adding an appropriate amount of each stock solution (e.g., 1 mL) and diluted to the appropriate final concentrations with the addition of 10 mL of an aqueous mixture of 1.25% (v/v) crop oil concentrate so that the final spray solutions contained 1.25+/−0.05% (v/v) crop oil concentrate.\nFor treatments comprised of technical compounds, weighed amounts can be placed individually in 25 mL glass vials and dissolved in a volume of 97:3 v/v acetone/DMSO to obtain 12× stock solutions. […] Application solutions can be prepared by adding an appropriate amount of each stock solution (e.g., 1 mL) and diluted to the appropriate final concentrations with the addition of 10 mL of an aqueous mixture of 1.5% (v/v) crop oil concentrate so that the final spray solutions contain 1.25% (v/v) crop oil concentrate. When technical materials are used, the concentrated stock solutions can be added to the spray solutions so that the final acetone and DMSO concentrations of the application solutions are […], respectively. […]"}}, "note": "Where “and” joins values, the source holds several entries; their conditions need not be identical. Identical values can stand only once."}
{"compound": "CCN(CC)C(=O)n1cnc(S(=O)(=O)c2c(C)cc(C)cc2C)n1", "note": "[Cafenstrole, N,N-diethyl-3-[(2,4,6-trimethylphenyl)sulfonyl]-1H-1,2,4-triazole-1-carboxamide]", "values": [{"measurement": "Visual Weed Control CYPRO Obs", "setting": "[1]; 52.5 gai/ha (Himeadow WP), 21 DAA", "result": 0, "unit": "%"}, {"measurement": "Visual Weed Control CYPRO Obs", "setting": "[1]; 52.5 gai/ha (Lapost Flowable), 21 DAA", "result": 0, "unit": "%"}, {"measurement": "Visual Weed Control CYPRO Obs", "setting": "[1]; 105 gai/ha (Himeadow WP), 21 DAA", "result": 0, "unit": "%"}, {"measurement": "Visual Weed Control CYPRO Obs", "setting": "[1]; 105 gai/ha (Lapost Flowable), 21 DAA", "result": 0, "unit": "%"}]}
{"compound": "COc1c(Cl)ccc(-c2nc(C(=O)OCc3ccccc3)c(Cl)c(N)c2F)c1F", "note": "[Compound A Benzyl Ester, benzyl ester of 4-amino-3-chloro-5-fluoro-6-(4-chloro-2-fluoro-3-methoxy-phenyl)pyridine-2-carboxylic acid]", "values": [{"measurement": "Visual Weed Control Obs", "setting": "[2]; 4.38 gae/ha", "result": "50% and 40%"}, {"measurement": "Visual Weed Control Obs", "setting": "[2]; 8.75 gae/ha", "result": "60% and 40% and 30%"}, {"measurement": "Visual Weed Control Obs", "setting": "[2]; 17.5 gae/ha", "result": 30, "unit": "%"}, {"measurement": "Visual Weed Control (%) - 21 DAA CYPRO Obs", "setting": "[1]; 4.38 gae/ha", "result": 0, "unit": "%"}, {"measurement": "Visual Weed Control CYPRO Obs", "setting": "[1]; 4.38 gae/ha, 20 DAA", "result": 0, "unit": "%"}, {"measurement": "Visual Weed Control CYPRO Obs", "setting": "[1]; 4.38 gae/ha, 21 DAA", "result": 0, "unit": "%"}, {"measurement": "Visual Weed Control CYPRO Obs", "setting": "[1]; 8 gae/ha, 19 DAA", "result": 50, "unit": "%"}, {"measurement": "Visual Weed Control (%) - 20 DAA CYPRO Obs", "setting": "[1]; 8.75 gae/ha", "result": "20% and 30%"}, {"measurement": "Visual Weed Control (%) - 21 DAA CYPRO Obs", "setting": "[1]; 8.75 gae/ha", "result": 30, "unit": "%"}, {"measurement": "Visual Weed Control CYPRO Obs", "setting": "[1]; 8.75 gae/ha, 20 DAA", "result": 20, "unit": "%"}, {"measurement": "Visual Weed Control CYPRO Obs", "setting": "[1]; 8.75 gae/ha, 21 DAA", "result": 30, "unit": "%"}, {"measurement": "Visual Weed Control (%) - 20 DAA CYPRO Obs", "setting": "[1]; 17.5 gae/ha", "result": 95, "unit": "%"}, {"measurement": "Visual Weed Control CYPRO Obs", "setting": "[1]; 17.5 gae/ha, 20 DAA", "result": 95, "unit": "%"}]}
{"compound": "CCCOCCN(C(=O)CCl)c1c(CC)cccc1CC", "note": "[Pretilachlor, 2-chloro-N-(2,6-diethylphenyl)-N-(2-propoxyethyl)acetamide]", "values": [{"measurement": "Visual Weed Control Obs", "setting": "[2]; 37.5 gai/ha", "result": 0, "unit": "%"}, {"measurement": "Visual Weed Control Obs", "setting": "[2]; 75 gai/ha", "result": 0, "unit": "%"}, {"measurement": "Visual Weed Control Obs", "setting": "[2]; 150 gai/ha", "result": 0, "unit": "%"}, {"measurement": "Visual Weed Control (%) - 20 DAA CYPRO Obs", "setting": "[1]; 75 gai/ha", "result": 0, "unit": "%"}, {"measurement": "Visual Weed Control (%) - 20 DAA CYPRO Obs", "setting": "[1]; 150 gai/ha", "result": 0, "unit": "%"}]}
{"compound": "COc1c(Cl)ccc(-c2nc(C(=O)O)c(Cl)c(N)c2F)c1F", "note": "[Compound A Acid, 4-amino-3-chloro-6-(4-chloro-2-fluoro-3-methoxyphenyl)-5-fluoropyridine-2-carboxylic acid]", "values": [{"measurement": "Visual Weed Control Obs", "setting": "[2]; 4.38 gae/ha", "result": 30, "unit": "%"}, {"measurement": "Visual Weed Control Obs", "setting": "[2]; 17.5 gae/ha", "result": 40, "unit": "%"}, {"measurement": "Visual Weed Control (%) - 20 DAA CYPRO Obs", "setting": "[1]; 8.75 gae/ha", "result": 0, "unit": "%"}, {"measurement": "Visual Weed Control (%) - 21 DAA CYPRO Obs", "setting": "[1]; 8.75 gae/ha", "result": 0, "unit": "%"}, {"measurement": "Visual Weed Control CYPRO Obs", "setting": "[1]; 8.75 gae/ha, 21 DAA", "result": 0, "unit": "%"}, {"measurement": "Visual Weed Control CYPRO Obs", "setting": "[1]; 17.5 gae/ha, 21 DAA", "result": 20, "unit": "%"}, {"measurement": "Visual Weed Control (%) - 20 DAA CYPRO Obs", "setting": "[1]; 35 gae/ha", "result": "80% and 90%"}]}
